How the values were obtained:
Test in all cases: relative viability (nuclei count vs DMSO), 5 days (fraction); higher = more cells survive
NCI-H647 = test system: NCI-H647
Method in brief: (§1)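 Cells from lung cancer lines were seeded into 1536-well plates and, one day later, dosed by pin tool. Treatments were either a single drug or a fixed dose of an anchor drug with five library-drug doses (not always all listed) in √10 steps. After 5 days, nuclei were stained in a one-step fixation (final 0.05% Triton X-100, 1% formaldehyde, 1 ug/ml Hoechst) and counted on 4× images, and relative viability is the treated-to-vehicle nuclei ratio, as the median of duplicate plates.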

NCI-H358 = test system: NCI-H358
Method in brief: as §1

NCI-H1792 = test system: NCI-H1792
Method in brief: as §1

ABC-1 = test system: ABC-1
Method in brief: as §1

NCI-H1975 = test system: NCI-H1975
Method in brief: as §1

NCI-H1651 = test system: NCI-H1651
Method in brief: as §1

HCC-15 = test system: HCC-15
Method in brief: as §1

COR-L 105 = test system: COR-L 105
Method in brief: as §1

NCI-H2087 = test system: NCI-H2087
Method in brief: as §1

NCI-H661 = test system: NCI-H661
Method in brief: as §1

UMC-11 = test system: UMC-11
Method in brief: as §1

LCLC-103H = test system: LCLC-103H
Method in brief: as §1

201T = test system: 201T
Method in brief: as §1

COR-L23 = test system: COR-L23
Method in brief: as §1

HCC-827 = test system: HCC-827
Method in brief: as §1

EKVX = test system: EKVX
Method in brief: as §1

EPLC-272H = test system: EPLC-272H
Method in brief: as §1

HCC-44 = test system: HCC-44
Method in brief: as §1

NCI-H1650 = test system: NCI-H1650
Method in brief: as §1

NCI-H727 = test system: NCI-H727
Method in brief: as §1

NCI-H520 = test system: NCI-H520
Method in brief: as §1

H3255 = test system: H3255
Method in brief: as §1

NCI-H1437 = test system: NCI-H1437
Method in brief: as §1

SMILES: O=C(O)CCCCC(CCSCc1ccccc1)SCc1ccccc1 (centres undefined) [CPI-613] + C[C@@H](Oc1cc(-c2cnn(C3CCNCC3)c2)cnc1N)c1c(Cl)ccc(F)c1Cl [Crizotinib] (partner 1 µM)
- relative viability (NCI-H647; first compound 5 µM): 0.853
- relative viability (NCI-H647; first compound 15.81 µM): 1.01
- relative viability (NCI-H647; first compound 50 µM): 0.769
- relative viability (NCI-H647; first compound 158.11 µM): 0.0681
- relative viability (NCI-H647; first compound 500 µM): 0.0175
- relative viability (NCI-H358; first compound 5 µM): 0.659
- relative viability (NCI-H358; first compound 15.81 µM): 0.606
- relative viability (NCI-H358; first compound 50 µM): 0.501
- relative viability (NCI-H358; first compound 158.11 µM): 0.104
- relative viability (NCI-H358; first compound 500 µM): 0.0191
- relative viability (NCI-H1792; first compound 5 µM): 0.937
- relative viability (NCI-H1792; first compound 15.81 µM): 0.909
- relative viability (NCI-H1792; first compound 50 µM): 0.914
- relative viability (NCI-H1792; first compound 158.11 µM): 0.91
- relative viability (NCI-H1792; first compound 500 µM): 0.753
- relative viability (ABC-1; first compound 5 µM): 0.984
- relative viability (ABC-1; first compound 15.81 µM): 0.855
- relative viability (ABC-1; first compound 50 µM): 0.875
- relative viability (ABC-1; first compound 158.11 µM): 0.367
- relative viability (ABC-1; first compound 500 µM): 0.213
- relative viability (NCI-H1975; first compound 5 µM): 0.931
- relative viability (NCI-H1975; first compound 15.81 µM): 0.982
- relative viability (NCI-H1975; first compound 50 µM): 0.945
- relative viability (NCI-H1975; first compound 158.11 µM): 0.499
- relative viability (NCI-H1975; first compound 500 µM): 0.0749
- relative viability (NCI-H1651; first compound 5 µM): 0.838
- relative viability (NCI-H1651; first compound 15.81 µM): 0.769
- relative viability (NCI-H1651; first compound 50 µM): 0.922
- relative viability (NCI-H1651; first compound 158.11 µM): 0.818
- relative viability (NCI-H1651; first compound 500 µM): 0.927
- relative viability (HCC-15; first compound 5 µM): 0.772
- relative viability (HCC-15; first compound 15.81 µM): 0.746
- relative viability (HCC-15; first compound 50 µM): 0.776
- relative viability (HCC-15; first compound 158.11 µM): 0.367
- relative viability (HCC-15; first compound 500 µM): 0.326
- relative viability (COR-L 105; first compound 5 µM): 0.727
- relative viability (COR-L 105; first compound 15.81 µM): 0.772
- relative viability (COR-L 105; first compound 50 µM): 0.753
- relative viability (COR-L 105; first compound 158.11 µM): 0.242
- relative viability (COR-L 105; first compound 500 µM): 0.169
- relative viability (NCI-H2087; first compound 5 µM): 0.909
- relative viability (NCI-H2087; first compound 15.81 µM): 0.706
- relative viability (NCI-H2087; first compound 50 µM): 0.706
- relative viability (NCI-H2087; first compound 158.11 µM): 0.132
- relative viability (NCI-H2087; first compound 500 µM): 0.0499
- relative viability (NCI-H661; first compound 15.81 µM): 1.03
- relative viability (NCI-H661; first compound 50 µM): 0.997
- relative viability (NCI-H661; first compound 158.11 µM): 1.15
- relative viability (NCI-H661; first compound 500 µM): 0.817
- relative viability (UMC-11; first compound 5 µM): 0.578
- relative viability (UMC-11; first compound 15.81 µM): 0.668
- relative viability (UMC-11; first compound 50 µM): 0.696
- relative viability (UMC-11; first compound 158.11 µM): 0.298
- relative viability (UMC-11; first compound 500 µM): 0.0636
- relative viability (LCLC-103H; first compound 5 µM): 1.11
- relative viability (LCLC-103H; first compound 15.81 µM): 1.1
- relative viability (LCLC-103H; first compound 50 µM): 0.917
- relative viability (LCLC-103H; first compound 158.11 µM): 0.855
- relative viability (LCLC-103H; first compound 500 µM): 0.861
- relative viability (201T; first compound 5 µM): 1.04
- relative viability (201T; first compound 15.81 µM): 0.989
- relative viability (201T; first compound 50 µM): 0.94
- relative viability (201T; first compound 158.11 µM): 0.93
- relative viability (201T; first compound 500 µM): 0.984
- relative viability (COR-L23; first compound 5 µM): 0.635
- relative viability (COR-L23; first compound 15.81 µM): 0.598
- relative viability (COR-L23; first compound 50 µM): 0.647
- relative viability (COR-L23; first compound 158.11 µM): 0.226
- relative viability (COR-L23; first compound 500 µM): 0.0141
- relative viability (HCC-827; first compound 5 µM): 0.878
- relative viability (HCC-827; first compound 15.81 µM): 0.906
- relative viability (HCC-827; first compound 50 µM): 0.843
- relative viability (HCC-827; first compound 158.11 µM): 0.412
- relative viability (HCC-827; first compound 500 µM): 0.225
- relative viability (EKVX; first compound 5 µM): 0.885
- relative viability (EKVX; first compound 15.81 µM): 0.817
- relative viability (EKVX; first compound 50 µM): 0.891
- relative viability (EKVX; first compound 158.11 µM): 1.02
- relative viability (EKVX; first compound 500 µM): 0.952
- relative viability (EPLC-272H; first compound 5 µM): 0.9
- relative viability (EPLC-272H; first compound 15.81 µM): 0.925
- relative viability (EPLC-272H; first compound 50 µM): 1.03
- relative viability (EPLC-272H; first compound 158.11 µM): 0.855
- relative viability (EPLC-272H; first compound 500 µM): 1.07
- relative viability (HCC-44; first compound 5 µM): 0.834
- relative viability (HCC-44; first compound 15.81 µM): 0.791
- relative viability (HCC-44; first compound 50 µM): 0.785
- relative viability (HCC-44; first compound 158.11 µM): 0.295
- relative viability (HCC-44; first compound 500 µM): 0.0369
- relative viability (NCI-H1650; first compound 5 µM): 0.991
- relative viability (NCI-H1650; first compound 15.81 µM): 0.854
- relative viability (NCI-H1650; first compound 50 µM): 0.853
- relative viability (NCI-H1650; first compound 158.11 µM): 0.579
- relative viability (NCI-H1650; first compound 500 µM): 0.0088
- relative viability (NCI-H727; first compound 5 µM): 0.875
- relative viability (NCI-H727; first compound 15.81 µM): 0.743
- relative viability (NCI-H727; first compound 50 µM): 0.797
- relative viability (NCI-H727; first compound 158.11 µM): 0.244
- relative viability (NCI-H727; first compound 500 µM): 0.0831
- relative viability (NCI-H520; first compound 5 µM): 0.721
- relative viability (NCI-H520; first compound 15.81 µM): 0.716
- relative viability (NCI-H520; first compound 50 µM): 0.626
- relative viability (NCI-H520; first compound 158.11 µM): 0.233
- relative viability (NCI-H520; first compound 500 µM): 0.106
- relative viability (H3255; first compound 5 µM): 0.773
- relative viability (H3255; first compound 15.81 µM): 0.894
- relative viability (H3255; first compound 50 µM): 0.914
- relative viability (H3255; first compound 158.11 µM): 0.831
- relative viability (H3255; first compound 500 µM): 0.742
- relative viability (NCI-H1437; first compound 5 µM): 0.96
- relative viability (NCI-H1437; first compound 15.81 µM): 0.794
- relative viability (NCI-H1437; first compound 50 µM): 0.857
- relative viability (NCI-H1437; first compound 158.11 µM): 0.229
- relative viability (NCI-H1437; first compound 500 µM): 0.0274
